biological target: PIK3CG (human) (UniProt P48736); assay: Inhibition of PIK3CG Kinase Activity
Sequence (P48736 whole entry, looked up): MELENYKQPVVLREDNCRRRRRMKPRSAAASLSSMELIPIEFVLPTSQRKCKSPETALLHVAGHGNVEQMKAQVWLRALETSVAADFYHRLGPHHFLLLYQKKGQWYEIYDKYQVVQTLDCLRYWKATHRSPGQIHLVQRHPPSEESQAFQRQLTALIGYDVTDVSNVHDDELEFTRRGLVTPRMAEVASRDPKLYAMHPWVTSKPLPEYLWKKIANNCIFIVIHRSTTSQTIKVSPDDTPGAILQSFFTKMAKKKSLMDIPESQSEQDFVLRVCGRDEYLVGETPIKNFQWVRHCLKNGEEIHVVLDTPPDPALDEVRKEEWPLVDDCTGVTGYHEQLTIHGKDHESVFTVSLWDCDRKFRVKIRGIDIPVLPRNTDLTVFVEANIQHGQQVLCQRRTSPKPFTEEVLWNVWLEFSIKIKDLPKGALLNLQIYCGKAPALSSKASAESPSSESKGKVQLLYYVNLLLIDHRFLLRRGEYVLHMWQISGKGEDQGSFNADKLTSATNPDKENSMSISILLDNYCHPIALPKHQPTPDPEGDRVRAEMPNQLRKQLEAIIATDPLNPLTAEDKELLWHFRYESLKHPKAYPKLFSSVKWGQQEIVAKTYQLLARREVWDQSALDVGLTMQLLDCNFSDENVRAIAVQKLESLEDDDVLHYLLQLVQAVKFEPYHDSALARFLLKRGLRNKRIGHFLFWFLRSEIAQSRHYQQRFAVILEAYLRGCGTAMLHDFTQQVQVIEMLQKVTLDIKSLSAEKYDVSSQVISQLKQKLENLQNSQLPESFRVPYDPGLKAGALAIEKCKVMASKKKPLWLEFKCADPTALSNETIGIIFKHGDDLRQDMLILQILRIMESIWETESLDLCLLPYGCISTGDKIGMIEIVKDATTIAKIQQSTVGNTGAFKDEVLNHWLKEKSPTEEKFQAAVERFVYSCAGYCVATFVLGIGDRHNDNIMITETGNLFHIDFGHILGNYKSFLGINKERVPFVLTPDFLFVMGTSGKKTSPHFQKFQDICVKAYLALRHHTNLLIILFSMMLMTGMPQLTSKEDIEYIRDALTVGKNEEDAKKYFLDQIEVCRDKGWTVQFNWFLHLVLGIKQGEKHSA

IC50, < 10 µM:
CC(C)(C)CNS(=O)(=O)c1cncc(-c2ccc3nc(N)nn3c2)c1
COc1ccc(-c2ccc3nc(N)nn3c2)cc1OC(C)C
Nc1nc2ccc(-c3cncc(S(=O)(=O)NC4CCOCC4)c3)cn2n1
Nc1nc2ccc(-c3cccs3)cn2n1
NC(=O)c1ccc(-c2ccc3nc(N)nn3c2)cc1
CNS(=O)(=O)c1cncc(-c2ccc3nc(N)nn3c2)c1
CC(C)c1ccc(NS(=O)(=O)c2cncc(-c3ccc4nc(N)nn4c3)c2)cc1
Nc1nc2ccc(-c3cncc(NS(=O)(=O)Cc4ccc(Cl)cc4)c3)cn2n1
CC(C)(NS(=O)(=O)c1cncc(-c2ccc3nc(N)nn3c2)c1)c1ccc(F)cc1
Nc1nc2ccc(-c3cncc(S(=O)(=O)N4CCCCC4)c3)cn2n1
Nc1nc2ccc(-c3cncc(S(=O)(=O)Nc4ccc(F)cc4)c3)cn2n1
Nc1nc2ccc(-c3cncc(S(=O)(=O)Cc4ccccc4)c3)cn2n1
Nc1nc2ccc(-c3cncc(S(=O)(=O)NCc4ccc(F)cc4)c3)cn2n1
CCC(CC)CNS(=O)(=O)c1cncc(-c2ccc3nc(N)nn3c2)c1
CS(=O)(=O)c1cncc(-c2ccc3nc(N)nn3c2)c1
Cn1cc(-c2ccc3nc(N)nn3c2)cn1
CCCNS(=O)(=O)c1cncc(-c2cc(F)c3nc(N)nn3c2)c1
CN(Cc1cccc(Cl)c1Cl)S(=O)(=O)c1cncc(-c2ccc3nc(N)nn3c2)c1
Nc1nc2ccc(-c3cncc(S(=O)(=O)Nc4cccc(OC(F)(F)F)c4)c3)cn2n1
Nc1nc2ccc(-c3cncc(NS(=O)(=O)c4cccc5ccccc45)c3)cn2n1
Nc1nc2ccc(-c3ccc(F)cc3)cn2n1
Nc1nc2ccc(-c3cncc(S(=O)(=O)N4CCC(F)(F)CC4)c3)cn2n1
COc1ccc(-c2ccc3nc(N)nn3c2)cc1
Nc1nc2ccc(-c3cncc(S(=O)(=O)Nc4cc(F)cc(F)c4)c3)cn2n1
Nc1nc2ccc(-c3cncc(S(=O)(=O)N(Cc4ccccc4F)C4CC4)c3)cn2n1
COc1ccc(-c2ccc3nc(N)nn3c2)cc1O
Nc1nc2ccc(-c3cncc(S(=O)(=O)Nc4ccc(Cl)cc4)c3)cn2n1
Cc1nc(C)c(CNS(=O)(=O)c2cncc(-c3ccc4nc(N)nn4c3)c2)o1
COc1cccc(-c2ccc3nc(N)nn3c2)c1
CCNS(=O)(=O)c1cncc(-c2ccc3nc(N)nn3c2)c1
Nc1nc2ccc(-c3cc[nH]n3)cn2n1
CC(C)(NS(=O)(=O)c1cncc(-c2ccc3nc(N)nn3c2)c1)C(F)(F)F
CN(C)C(=O)CNS(=O)(=O)c1cncc(-c2ccc3nc(N)nn3c2)c1
Nc1nc2ccc(-c3cncc(C(F)(F)F)c3)cn2n1
Nc1nc2ccc(-c3cncc(S(=O)(=O)Nc4cccc(F)c4F)c3)cn2n1
Nc1nc2c(F)cc(-c3cncc(S(=O)(=O)N4CCC4)c3)cn2n1
CCN(C)S(=O)(=O)c1cncc(-c2ccc3nc(N)nn3c2)c1
CC(C)NS(=O)(=O)c1cncc(-c2ccc3nc(N)nn3c2)c1
Nc1nc2ccc(-c3cccc(S(=O)(=O)NCC(=O)O)c3)cn2n1
Cc1cccc(-c2ccc3nc(N)nn3c2)c1
Nc1nc2ccc(-c3cncc(NS(=O)(=O)c4cccc(C(F)(F)F)c4)c3)cn2n1
Nc1nc2ccc(-c3cccc(S(=O)(=O)NCCCCC(=O)O)c3)cn2n1
Nc1nc2ccc(-c3cncc(Oc4ccccc4)c3)cn2n1
Nc1nc2ccc(-c3cncc(NS(=O)(=O)c4ccc5ccccc5c4)c3)cn2n1
CC(C)(C)NS(=O)(=O)c1cccc(-c2ccc3nc(N)nn3c2)c1
Nc1nc2ccc(-c3cccc(S(N)(=O)=O)c3)cn2n1
Nc1nc2ccc(-c3cncc(S(=O)(=O)N4CCC4)c3)cn2n1
Nc1nc2ccc(-c3cncc(S(=O)(=O)N4CCCC4)c3)cn2n1
CC(C)(CN1CCCC1)NS(=O)(=O)c1cncc(-c2ccc3nc(N)nn3c2)c1
CCCCNS(=O)(=O)c1cccc(-c2ccc3nc(N)nn3c2)c1
COc1cc(-c2ccc3nc(N)nn3c2)cc(OC)c1OC
CCN(CC)S(=O)(=O)c1cncc(-c2ccc3nc(N)nn3c2)c1
COc1ccccc1-c1ccc2nc(N)nn2c1
Nc1nc2ccc(-c3cncc(S(=O)(=O)Nc4cccc(OC(F)F)c4)c3)cn2n1
COc1ccc(-c2cn3nc(N)nc3cc2C)cc1OC
Nc1nc2ccc(-c3cncc(S(=O)(=O)NCC4CCCC4)c3)cn2n1
COc1ccc(-c2cc(Cl)c3nc(N)nn3c2)cc1OC
Nc1nc2ccc(-c3cccc(C(F)(F)F)c3)cn2n1
Nc1nc2ccc(-c3cncc(S(=O)(=O)NCCN4CCNC4=O)c3)cn2n1
Nc1nc2ccc(-c3cnc(N)c(C(F)(F)F)c3)cn2n1
Nc1nc2ccc(-c3cncc(SCc4ccccc4)c3)cn2n1
CC(C)(C)COc1cncc(-c2ccc3nc(N)nn3c2)c1
Nc1nc2ccc(-c3ccc(S(N)(=O)=O)cc3)cn2n1
Nc1nc2ccc(-c3ccncc3)cn2n1
Nc1nc2ccc(-c3cncc(S(=O)(=O)NCc4ccc(Cl)c(Cl)c4)c3)cn2n1
Nc1nc2ccc(-c3cncc(S(=O)(=O)NCCCC(F)(F)F)c3)cn2n1
Nc1nc2ccc(-c3cncc(S(=O)(=O)NCC(F)(F)F)c3)cn2n1
Nc1nc2ccc(-c3cncnc3)cn2n1
Nc1nc2ccc(-c3cncc(S(=O)(=O)NCCC(F)(F)F)c3)cn2n1
CC(C)(C)NC(=O)c1cncc(-c2ccc3nc(N)nn3c2)c1
CN1CCN(S(=O)(=O)c2cncc(-c3ccc4nc(N)nn4c3)c2)CC1
COc1cccc(NS(=O)(=O)c2cncc(-c3ccc4nc(N)nn4c3)c2)c1
Nc1nc2ccc(-c3ccc4c(c3)OCO4)cn2n1
CN(C)CCN(C)S(=O)(=O)c1cccc(-c2ccc3nc(N)nn3c2)c1
Nc1nc2ccc(-c3cncc(NS(=O)(=O)c4cc(C(F)(F)F)cc(C(F)(F)F)c4)c3)cn2n1
CC(C)(C)CS(=O)(=O)c1cncc(-c2ccc3nc(N)nn3c2)c1
COc1ccc(-c2cc(F)c3nc(N)nn3c2)cc1OC
NCCNS(=O)(=O)c1cccc(-c2ccc3nc(N)nn3c2)c1
Nc1nc2ccc(-c3cncc(S(=O)(=O)Nc4ccccc4)c3)cn2n1
CN(C)CCNS(=O)(=O)c1cccc(-c2ccc3nc(N)nn3c2)c1
CC(C)COc1cncc(-c2ccc3nc(N)nn3c2)c1
CC(C)(NS(=O)(=O)c1cncc(-c2ccc3nc(N)nn3c2)c1)c1ccccc1
CN(C)CCCNS(=O)(=O)c1cncc(-c2ccc3nc(N)nn3c2)c1
Nc1nc2ccc(-c3cncc(S(=O)(=O)Nc4cccc(F)c4)c3)cn2n1
Nc1nc2ccc(-c3cncc(OCc4ccccc4)c3)cn2n1
COc1ccc(-c2ccc3nc(N)nn3c2)cc1OC
CNS(=O)(=O)c1cncc(-c2cc(F)c3nc(N)nn3c2)c1
CS(=O)(=O)c1cccc(-c2ccc3nc(N)nn3c2)c1
Nc1nc2ccc(-c3cncc(S(=O)(=O)N4CCC(F)CC4)c3)cn2n1
CN(C)CCN(C)S(=O)(=O)c1cncc(-c2ccc3nc(N)nn3c2)c1
CN(c1cccc(C(F)(F)F)c1)S(=O)(=O)c1cncc(-c2ccc3nc(N)nn3c2)c1
Nc1nc2ccc(-c3cncc(S(=O)(=O)NC4CCCCC4)c3)cn2n1
CC(C)CNS(=O)(=O)c1cncc(-c2ccc3nc(N)nn3c2)c1
Nc1nc2c(F)cc(-c3cncc(C(F)(F)F)c3)cn2n1
Nc1nc2ccc(-c3cncc(S(=O)(=O)NCC4CC4)c3)cn2n1
Nc1nc2ccc(-c3cccc(O)c3)cn2n1
Nc1nc2ccc(-c3cncc(S(=O)(=O)Nc4ccc(OC(F)(F)F)cc4)c3)cn2n1
Nc1nc2ccc(-c3cncc(NS(=O)(=O)c4cccc(OC(F)(F)F)c4)c3)cn2n1
Nc1nc2ccc(-c3ccc(F)c(F)c3)cn2n1
COc1ccc(-c2cc(C)c3nc(N)nn3c2)cc1OC
Nc1nc2ccc(-c3cncc(S(=O)(=O)NCc4cccc(Cl)c4Cl)c3)cn2n1

Reference: the Kinase Knowledgebase extract (Sharma et al. 2016)
